For one test, the target named is T1, SIK3 (Homo sapiens, UniProt Q9Y2K2).
T1 construct: purchased SignalChem S12-11G-100
Briefly: ADP-Glo kinase assay, SIK3. It counts as biochemical. The gist of the method:
(§1)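 Luminescent ADP-Glo readout of ADP formed. Enzyme-substrate mix with ATP, reaction 120 min at RT, then 40 min ATP depletion and 30 min detection. Controls were 1% DMSO (negative) and 10 μM staurosporine (positive), both final.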
In general terms: ADP-Glo turns the ADP formed in a reaction into a luminescent signal.

Another test has as its target T2, SIK2 (Homo sapiens, UniProt Q9H0K1).
T2 construct: purchased ThermoFisher Scientific PV4792
Briefly: ADP-Glo kinase assay, SIK2. It counts as biochemical. The essentials: as §1

Another test concerns the target T3, SIK1 (Homo sapiens, UniProt P57059).
T3 construct: purchased Carna Biosciences 02-131
Briefly: ADP-Glo kinase assay, SIK1. It counts as biochemical. The essentials: as §1

The subject of test [1] is LPS triggered IL-10 secretion in monocytes. Briefly: Monocytes assay: LPS-triggered IL-10 (ELISA). The test is classed as cell-based, human. The conditions noted are these: LPS-triggered IL-10 induction, median maximal fold change vs LPS only; for maximal fold induction: Homo sapiens, Monocyte, read-out: IL-10 FCmax median. The method, then: This assay evaluates illustrative compounds of the invention for their inhibition of LPS-induced TNFα and LPS triggered IL-10 secretion in monocytes.
PBMCs are isolated from human blood samples (buffycoats). The buffy coat is aseptically transferred into a 50 mL Falcon tube, and diluted 1/2 in PBS. Falcon tubes are filled with 20 mL Lymphoprep™, on top of which 25 mL of the buffy coat is carefully added, tubes are centrifuged for 35 min at 400 g in temperature controlled centrifuge, without brake, at 25° C. PBMCs are aspirated from the white interface layer between sample and Lymphoprep™. PBMCs are washed five times in PBS.
PBMCs are centrifuged at 300×g for 10 min and resuspended at a density of 1.0*10^7 cells/80 μL Miltenyi buffer (PBS, pH 7.4, 1% FBS, 2 mM EDTA).
Starting from this point of the protocol all steps are performed on ice. 20 μL of CD14+ micro-beads are added per 1.0*10^7 cells, the tube is mixed and incubated for 15 min in the fridge at 4° C. Cell suspension volume is adjusted to total volume of 100 mL using Miltenyi buffer, mixed gently and subsequently centrifuged for 10 min at 300×g. Supernatant is discarded and cell pellet is resuspended in 12 mL of Miltenyi buffer.
Four LS columns are placed in the MACS Separator (magnet) from Miltenyi Biotec, and are prewet by rinsing with 3 mL of MACS buffer per column. Three mL of cell suspension is added onto the column (max 1*10^8 of labelled cells/column), and columns are subsequently washed 3 times with 3 mL of Miltenyi buffer.
The columns are removed from the magnets, and 5 mL of Miltenyi buffer are added to the column to flush out the CD14+ fraction by pushing the plunger into the column. The flushed fractions are collected in a fresh 50 mL Falcon and volume is adjusted to 30 mL using Miltenyi buffer, cells are centrifuged for 10 min at 300×g. The obtained cell pellet is resuspended in 10 mL RPMI w/o FBS, and cell density is determined using a hematologic analyser (Sysmex XS-500i).
A compound dilution plate is made in 100% DMSO by 3-fold dilution of 10 mM stock solution. An intermediate dilution plate (10× final concentration) is made by diluting the compound dilution plate 50-fold in RPMI medium.
10 μL of the 10× final concentration compound is added to the cells and incubated for 1 h at 37° C. before addition of trigger. No trigger conditions/trigger conditions are spiked with equal final DMSO concentrations of 0.2% DMSO. 10 μL of 10×LPS (final conc. 200 ng/mL) solution are added to all wells except for the ‘no trigger wells’ where 10 μL medium is added. Supernatant is collected after 4 h of LPS triggering.
A Lumitrac 600 Greiner 384-well plate is coated with 40 μL of capture antibody (final concentration of 1 μg/mL in 1×PBS) and stored overnight at 4° C. The next day the plate is washed three times with PBST (PBS+0.05% Tween20) and once with PBS followed by the addition of 100 μL of blocking buffer (1% BSA-5% Sucrose) and plates are sealed and incubated for at least 4 h at RT. After washing the plate once with PBST and once with PBS, 40 μL of standard or sample are added (IL-10 standard curve is prepared using a 1/2 serial dilution starting from 2000 pg/mL; dilutions are made in dilution buffer (PBS+1% BSA)). […] Plates are washed twice with PBST, and once with PBS, whereafter 35 μL of Strep-HRP conjugate (0.5 μg/mL final concentration diluted in dilution buffer) is added. Plates are incubated in the dark, at RT for at least 45 min but no longer than 1 h. Plates are washed twice with PBST, and once with PBS. Thereafter, 50 μL of luminol substrate is added to each well (prepared according to manufacturer's instructions), and incubated for 5 min at RT protected from light.
To quantify these increases, fold changes (FC) compared to ‘LPS only’ are calculated for each concentration tested and the maximal FC is calculated (IL-10 FCmax): […]

Where [2] appears, read: ADP-Glo, AMARA 45 μM, 5 μM ATP, 120 min, average IC50.

Where two headings read alike, the source gives them in different places.

Usually IC50 stands for the concentration that gives 50% inhibition. A higher IC50 goes with lower potency.

T2 sequence (Q9H0K1 whole entry): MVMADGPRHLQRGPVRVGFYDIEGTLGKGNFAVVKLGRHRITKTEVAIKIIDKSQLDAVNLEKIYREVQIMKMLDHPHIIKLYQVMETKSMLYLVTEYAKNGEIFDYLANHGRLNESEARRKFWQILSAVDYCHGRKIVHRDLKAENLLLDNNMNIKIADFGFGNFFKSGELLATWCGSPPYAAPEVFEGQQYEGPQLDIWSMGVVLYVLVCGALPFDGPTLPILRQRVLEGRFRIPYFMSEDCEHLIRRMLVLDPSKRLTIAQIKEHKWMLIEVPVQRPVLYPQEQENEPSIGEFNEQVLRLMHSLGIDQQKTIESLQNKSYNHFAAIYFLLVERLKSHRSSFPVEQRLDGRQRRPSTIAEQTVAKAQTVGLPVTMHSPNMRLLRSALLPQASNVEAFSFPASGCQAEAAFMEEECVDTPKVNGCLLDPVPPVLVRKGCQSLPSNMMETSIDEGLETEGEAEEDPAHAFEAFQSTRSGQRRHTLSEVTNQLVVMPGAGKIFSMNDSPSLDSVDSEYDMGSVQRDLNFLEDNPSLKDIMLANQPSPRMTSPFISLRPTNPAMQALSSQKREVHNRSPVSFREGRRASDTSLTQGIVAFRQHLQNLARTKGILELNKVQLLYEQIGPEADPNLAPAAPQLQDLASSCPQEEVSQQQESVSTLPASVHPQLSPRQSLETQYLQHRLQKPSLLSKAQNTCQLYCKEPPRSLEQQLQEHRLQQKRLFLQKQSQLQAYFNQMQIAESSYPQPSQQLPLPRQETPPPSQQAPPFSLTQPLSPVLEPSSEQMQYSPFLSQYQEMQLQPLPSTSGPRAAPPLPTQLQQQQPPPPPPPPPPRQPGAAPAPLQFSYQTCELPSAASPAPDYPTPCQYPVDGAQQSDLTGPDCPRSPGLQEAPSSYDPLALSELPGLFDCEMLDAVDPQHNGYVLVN
T1 sequence (Q9Y2K2 59-365 limits assumed): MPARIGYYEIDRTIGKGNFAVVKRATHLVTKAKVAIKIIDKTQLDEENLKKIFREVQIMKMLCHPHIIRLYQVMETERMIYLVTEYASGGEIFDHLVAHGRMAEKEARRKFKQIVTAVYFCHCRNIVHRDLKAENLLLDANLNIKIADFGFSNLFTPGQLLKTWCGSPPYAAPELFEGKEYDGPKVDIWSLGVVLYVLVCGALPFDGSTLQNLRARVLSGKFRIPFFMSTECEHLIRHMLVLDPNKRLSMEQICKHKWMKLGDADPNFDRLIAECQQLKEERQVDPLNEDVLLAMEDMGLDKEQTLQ
T3 sequence (P57059 whole entry): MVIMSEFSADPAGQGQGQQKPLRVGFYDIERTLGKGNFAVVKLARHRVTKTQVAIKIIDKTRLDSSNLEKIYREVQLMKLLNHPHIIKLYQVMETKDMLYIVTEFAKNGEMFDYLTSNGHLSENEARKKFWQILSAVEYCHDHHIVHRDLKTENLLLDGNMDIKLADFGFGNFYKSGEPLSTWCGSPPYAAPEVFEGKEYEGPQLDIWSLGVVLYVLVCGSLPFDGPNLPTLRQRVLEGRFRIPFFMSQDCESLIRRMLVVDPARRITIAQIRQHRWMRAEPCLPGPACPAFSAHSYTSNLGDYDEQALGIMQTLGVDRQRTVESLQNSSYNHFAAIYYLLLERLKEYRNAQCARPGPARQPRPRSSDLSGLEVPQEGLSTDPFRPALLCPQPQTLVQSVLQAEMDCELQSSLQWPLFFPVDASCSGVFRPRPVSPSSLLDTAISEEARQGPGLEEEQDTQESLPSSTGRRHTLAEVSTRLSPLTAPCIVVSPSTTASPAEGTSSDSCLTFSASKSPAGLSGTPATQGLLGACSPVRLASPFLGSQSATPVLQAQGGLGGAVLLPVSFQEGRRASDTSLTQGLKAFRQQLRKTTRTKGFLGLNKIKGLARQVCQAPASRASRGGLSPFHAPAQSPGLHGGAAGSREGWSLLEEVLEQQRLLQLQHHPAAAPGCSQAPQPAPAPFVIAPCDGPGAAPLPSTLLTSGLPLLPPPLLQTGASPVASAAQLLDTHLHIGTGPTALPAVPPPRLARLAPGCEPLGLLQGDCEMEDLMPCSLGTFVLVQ

Take `COc1cc(-c2cnc3cc(C4(O)CCC4)ccn23)cc(OC(F)F)c1C(=O)N[C@@H]1C[C@@H]1F` [Cpd 205, 2-(difluoromethoxy)-N-[(1R,2S)-2-fluorocyclopropyl]-4-[7-(1-hydroxycyclobutyl)imidazo[1,2-a]pyridin-3-yl]-6-methoxy-benzamide]: the IC50 against SIK3 is 0.01 to 10 nM; at SIK2 it was 100 to 500 nM; on SIK1 it was > 500 nM. Besides, the maximal fold induction in test [1] was 1.5 to 4.5.

Turning to `COc1cc(-c2cnn3cc(C(C)(C)C#N)cnc23)cc(OC(F)F)c1C(=O)N[C@@H]1C[C@@H]1F` [Cpd 231, 4-[6-(1-cyano-1-methyl-ethyl)pyrazolo[1,5-a]pyrimidin-3-yl]-2-(difluoromethoxy)-N-[(1R,2S)-2-fluorocyclopropyl]-6-methoxy-benzamide], the IC50 on SIK3 was 0.01 to 10 nM; at SIK2 it was > 500 nM; against SIK1 it was > 500 nM. For the same molecule, the maximal fold induction in test [1] is < 1.5.

Consider `COCC(C)(C#N)c1ccn2c(-c3cc(OC)c(C(=O)NC4CC4)c(OC(F)F)c3)cnc2c1` (stereo not shown) [Cpd 195, 4-[7-(1-cyano-2-methoxy-1-methyl-ethyl)imidazo[1,2-a]pyridin-3-yl]-N-cyclopropyl-2-(difluoromethoxy)-6-methoxy-benzamide], for which the half-maximal inhibitory concentration (IC50) on SIK3 is 10 to 100 nM; on SIK2, > 500 nM; at SIK1, > 500 nM. Also, in test [1], the maximal fold induction was < 1.5.

On to `COc1cc(-c2cnc3cc([C@@](C)(C#N)CO)ccn23)cc(OC(F)F)c1C(=O)NC1CC1` (single isomer, unassigned) [Cpd 190, 4-[7-(1-cyano-2-hydroxy-1-methyl-ethyl)imidazo[1,2-a]pyridin-3-yl]-N-cyclopropyl-2-(difluoromethoxy)-6-methoxy-benzamide], for which the figures for the IC50 against SIK3 (setting [2]), at SIK2 (setting [2]) and against SIK1 (setting [2]) were 10 to 100 nM, > 500 nM and > 500 nM, respectively. Moreover, in test [1], the “IL-10 FCmax median” value is “+ (+ ≤1.5)”.

As for `COc1cc(-c2cnc3cc(C4(C#N)COC4)ccn23)cc(OC(F)F)c1C(=O)NC1CC1` [Cpd 117, 4-[7-(3-cyanooxetan-3-yl)imidazo[1,2-a]pyridin-3-yl]-N-cyclopropyl-2-(difluoromethoxy)-6-methoxy-benzamide], the half-inhibitory concentration (IC50) was 0.01 to 10 nM against SIK3, > 500 nM at SIK2 and > 500 nM against SIK1. The maximal fold induction in test [1] was in the range of 1.5 to 4.5.

Regarding `COc1cc(-c2cnc3cc(C4CCCN4C)ccn23)cc(OC(F)F)c1C(=O)NC1CC1` (stereo not shown) [Cpd 171, N-cyclopropyl-2-(difluoromethoxy)-6-methoxy-4-[7-(1-methylpyrrolidin-2-yl)imidazo[1,2-a]pyridin-3-yl]benzamide], the 50% inhibitory concentration (IC50) was 10 to 100 nM against SIK3, > 500 nM against SIK2 and > 500 nM on SIK1. The maximal fold induction in test [1] lay in the range of 1.5 to 4.5.

Take `COc1cc(-c2cnc3cc(C(O)CC#N)ccn23)cc(OC(F)F)c1C(=O)NC1CC1` (stereo not shown) [Cpd 175, 4-[7-(2-cyano-1-hydroxy-ethyl)imidazo[1,2-a]pyridin-3-yl]-N-cyclopropyl-2-(difluoromethoxy)-6-methoxy-benzamide]: the IC50 is 10 to 100 nM at SIK3, 100 to 500 nM at SIK2 and > 500 nM on SIK1. In addition, in test [1], the maximal fold induction is 1.5 to 4.5.

In the case of `CCC(C)(O)c1ccn2c(-c3cc(OC)c(C(=O)NC4CC4)c(OC(F)F)c3)cnc2c1` (stereo not shown) [Cpd 137, N-cyclopropyl-2-(difluoromethoxy)-4-[7-(1-hydroxy-1-methyl-propyl)imidazo[1,2-a]pyridin-3-yl]-6-methoxy-benzamide], the values for the concentration for half-maximal inhibition (IC50) on SIK3, at SIK2 and at SIK1 were 10 to 100 nM, > 500 nM and > 500 nM, respectively. Also, the maximal fold induction in test [1] is < 1.5.

Regarding `COc1cc(-c2cnc3cc(C4CCC4)c(F)cn23)cc(OC(F)F)c1C(=O)NC1CC1` [Cpd 168, 4-(7-cyclobutyl-6-fluoro-imidazo[1,2-a]pyridin-3-yl)-N-cyclopropyl-2-(difluoromethoxy)-6-methoxy-benzamide], the IC50 against SIK3 was 0.01 to 10 nM; on SIK2 it was 10 to 100 nM; against SIK1, 100 to 500 nM. In test [1], the maximal fold induction was 1.5 to 4.5.

As to `COc1cc(-c2cnn3cc(C4(O)CCC4)ccc23)cc(OC(F)F)c1C(=O)N[C@@H]1C[C@@H]1F` [Cpd 266, 2-(difluoromethoxy)-N-[(1R,2S)-2-fluorocyclopropyl]-4-[6-(1-hydroxycyclobutyl)pyrazolo[1,5-a]pyridin-3-yl]-6-methoxy-benzamide], the IC50 on SIK3 is 0.01 to 10 nM; on SIK2, 100 to 500 nM; at SIK1, > 500 nM. Also, the maximal fold induction in test [1] is < 1.5.

As for `COc1cc(-c2cnn3cc(C4COCCO4)ccc23)cc(OC(F)F)c1C(=O)NC1CC1` (stereo not shown) [Cpd 232, N-cyclopropyl-2-(difluoromethoxy)-4-[6-(1,4-dioxan-2-yl)pyrazolo[1,5-a]pyridin-3-yl]-6-methoxy-benzamide], the figures for the 50% inhibitory concentration (IC50) against SIK3, against SIK2 and against SIK1 were 0.01 to 10 nM, 100 to 500 nM and > 500 nM, respectively. In test [1], the maximal fold induction is < 1.5.

Take `COc1cc(-c2cnn3cc(C4(C#N)CCOCC4)ccc23)cc(OC(F)F)c1C(=O)N[C@@H]1C[C@@H]1F` [Cpd 243, 4-[6-(4-cyanotetrahydropyran-4-yl)pyrazolo[1,5-a]pyridin-3-yl]-2-(difluoromethoxy)-N-[(1R,2S)-2-fluorocyclopropyl]-6-methoxy-benzamide]: the IC50 against SIK3 was 0.01 to 10 nM; against SIK2, > 500 nM; against SIK1 it was > 500 nM. For the same molecule, the maximal fold induction in test [1] is < 1.5.

On to `[2H]C([2H])([2H])C(C#N)(c1ccc2c(-c3cc(OC)c(C(=O)N[C@@H]4C[C@@H]4F)c(OC(F)F)c3)cnn2c1)C([2H])([2H])[2H]` [Cpd 275, 4-[6-[1-cyano-2,2,2-trideuterio-1-(trideuteriomethyl)ethyl]pyrazolo[1,5-a]pyridin-3-yl]-2-(difluoromethoxy)-N-[(1R,2S)-2-fluorocyclopropyl]-6-methoxy-benzamide], for which the maximal fold induction in test [1] lay within 1.5 to 4.5.

Take `COc1cc(-c2cnn3cc(C(C)(C)C#N)ccc23)cc(OC(F)F)c1C(=O)N[C@@H]1C[C@@H]1F` [Cpd 219, 4-[6-(1-cyano-1-methyl-ethyl)pyrazolo[1,5-a]pyridin-3-yl]-2-(difluoromethoxy)-N-[(1R,2S)-2-fluorocyclopropyl]-6-methoxy-benzamide]: in test [1], the maximal fold induction was < 1.5.

In the case of `COc1cc(-c2cnn3cc(C(C)(C)C#N)ccc23)cc(OC(F)F)c1C(=O)N[C@@H]1C[C@H]1F` (single isomer, unassigned) [Cpd 257, 4-[6-(1-cyano-1-methyl-ethyl)pyrazolo[1,5-a]pyridin-3-yl]-2-(difluoromethoxy)-N-(2-fluorocyclopropyl)-6-methoxy-benzamide], the maximal fold induction in test [1] was 1.5 to 4.5.

Turning to `COc1cc(-c2cnn3cc(C(C)(C)C#N)ccc23)cc(OC(F)F)c1C(=O)N[C@@H]1C[C@H]1F` (single isomer, unassigned) [Cpd 258, 4-[6-(1-cyano-1-methyl-ethyl)pyrazolo[1,5-a]pyridin-3-yl]-2-(difluoromethoxy)-N-(2-fluorocyclopropyl)-6-methoxy-benzamide], the “IL-10 FCmax median” value in test [1] was “+ (+ ≤1.5)”.

(Values after patent US12391679B2, “Benzamide-substituted bicyclic imidazo- and pyrazolo-fused -pyridine, -pyrimide, and -pyridazine compounds for treatment of inflammatory diseases” (ONCO3R Therapeutics BV, priority 2019, dated 2025).)
